The supplement of paper PMC11208160
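Note: IS621 bridge recombinase in Escherichia coli cells against a fixed T5 target plasmid.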

Assay: recombinant UMI read abundance after kanamycin selection (control-corrected) (log10(CPM+1)); higher = more efficient recombination; extreme values may be limits of the assay; sequences stand for … in AGTGCAGAGAAAATCGGCCAGTTTTCTCTGCCTGCAGTCCGCATGCCGTGGGACCCCTTGGGTTCTAACCTGTTGCCTAGATTTATGCAGCGGACTGCCTTTCTCCCAAAGTGATAAACCGG…AGGTTGGTTTCACT; site = the 11-nt donor
Outline: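 For the IS621 bridge recombinase, a pooled Escherichia coli screen tested donor and donor-binding-loop pairs. Cells received the pair library together with a target plasmid encoding a fixed target and T7-inducible recombinase, then went onto IPTG (0.07 mM) plus kanamycin or unselected plates in duplicate. After PCR across the donor–target junction and sequencing, recombinant UMI counts were normalized to CPM, averaged, and scaled by control-derived factors. Each value is given as log10(CPM+1).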
For “TGCTGCCCATGGACCGGTTTTCCCGGTAATCCGTATTTGTC (site TGCTGCCCTGA)”, the “recombinant UMI read abundance (log10)” value was 0.338.
In the case of “TGGAACCCATGGACCGGTTTTCCCGGTAATCCGTATTTGTT (site CGGAATCCTAA)”, the “recombinant UMI read abundance (log10)” value is reported as 0.
With “TGGAACCCATGGACCGGTTTTCCCGGTAATCCGTATTTGTT (site TGGAACCCTAA)” the “recombinant UMI read abundance (log10)” value was 1.15.
In the case of “TGGAAGACATGGACCGGTTTTCCCGGTAATCCGTATTTGTA (site AGGAAGACTTG)”, the “recombinant UMI read abundance (log10)” value is reported as 0.00598.
In the case of “TGGAAGACATGGACCGGTTTTCCCGGTAATCCGTATTTGTA (site TGGAAGACTTA)”, the “recombinant UMI read abundance (log10)” value is reported as 2.36.
With “TGGAAGTCATGGACCGGTTTTCCCGGTAATCCGTATTTGGC (site TGGAAGTCTGC)” the “recombinant UMI read abundance (log10)” value was 2.31.
With “TGGAATACATGGACCGGTTTTCCCGGTAATCCGTATTTGTG (site TGGAATACTCA)” the “recombinant UMI read abundance (log10)” value was 1.12.
For “TGGAATCCATGGACCGGTTTTCCCGGTAATCCGTATTTGGT (site CGGAATCCTAA)”, the “recombinant UMI read abundance (log10)” value was 0.
With “TGGAATCCATGGACCGGTTTTCCCGGTAATCCGTATTTGGT (site TGGAATCCTAC)” the “recombinant UMI read abundance (log10)” value was 0.
With “TGGACTACATGGACCGGTTTTCCCGGTAATCCGTATTTGGA (site TGGACTACTTC)” the “recombinant UMI read abundance (log10)” value was 0.786.
In the case of “TGGACTTCATGGACCGGTTTTCCCGGTAATCCGTATTTGTG (site TGGACTTCTCA)”, the “recombinant UMI read abundance (log10)” value is reported as 0.248.
For “TGGATTCCATGGACCGGTTTTCCCGGTAATCCGTATTTGAT (site TGGATTCCTAT)”, the “recombinant UMI read abundance (log10)” value was 0.
With “TGGCAGGCATGGACCGGTTTTCCCGGTAATCCGTATTTGGC (site TGGCAGGCTGC)” the “recombinant UMI read abundance (log10)” value was 0.909.
For “TGGCAGGCATGGACCGGTTTTCCCGGTAATCCGTATTTGGC (site TGGCCGGCTGC)”, the “recombinant UMI read abundance (log10)” value was 0.
For “TGGCAGGCATGGACCGGTTTTCCCGGTAATCCGTATTTGGC (site TGGCGGGCTGC)”, the “recombinant UMI read abundance (log10)” value was 0.
In the case of “TGGCAGGCATGGACCGGTTTTCCCGGTAATCCGTATTTGGC (site TGGCTGGCTGC)”, the “recombinant UMI read abundance (log10)” value is reported as 0.
With “TGGCCGGCATGGACCGGTTTTCCCGGTAATCCGTATTTGCC (site TGGCCGGCTGA)” the “recombinant UMI read abundance (log10)” value was 0.00339.
For “TGGCCGGCATGGACCGGTTTTCCCGGTAATCCGTATTTGCC (site TGGCCGGCTGC)”, the “recombinant UMI read abundance (log10)” value was 0.
In the case of “TGGCCGGCATGGACCGGTTTTCCCGGTAATCCGTATTTGCC (site TGGCCGGCTGG)”, the “recombinant UMI read abundance (log10)” value is reported as 1.05.
In the case of “TGGCCGGCATGGACCGGTTTTCCCGGTAATCCGTATTTGCC (site TGGCCGGCTGT)”, the “recombinant UMI read abundance (log10)” value is reported as 0.00896.
With “TGGCCGTCATGGACCGGTTTTCCCGGTAATCCGTATTTGGC (site TGGCCGACTGC)” the “recombinant UMI read abundance (log10)” value was 0.
In the case of “TGGCCGTCATGGACCGGTTTTCCCGGTAATCCGTATTTGGC (site TGGCCGCCTGC)”, the “recombinant UMI read abundance (log10)” value is reported as 0.
In the case of “TGGCCGTCATGGACCGGTTTTCCCGGTAATCCGTATTTGGC (site TGGCCGGCTGC)”, the “recombinant UMI read abundance (log10)” value is reported as 0.
In the case of “TGGCCGTCATGGACCGGTTTTCCCGGTAATCCGTATTTGGC (site TGGCCGTCTGC)”, the “recombinant UMI read abundance (log10)” value is reported as 0.431.
In the case of “TGGCGAGCATGGACCGGTTTTCCCGGTAATCCGTATTTGTT (site TGGCGAGCTAA)”, the “recombinant UMI read abundance (log10)” value is reported as 1.04.
With “TGGCGGACATGGACCGGTTTTCCCGGTAATCCGTATTTGCA (site TGGCGGACTTG)” the “recombinant UMI read abundance (log10)” value was 1.67.
In the case of “TGGCTTACATGGACCGGTTTTCCCGGTAATCCGTATTTGGC (site TGGCTTACTGC)”, the “recombinant UMI read abundance (log10)” value is reported as 0.536.
With “TGGGAATCATGGACCGGTTTTCCCGGTAATCCGTATTTGCG (site TAGGAATCTCG)” the “recombinant UMI read abundance (log10)” value was 1.35.
In the case of “TGGGAATCATGGACCGGTTTTCCCGGTAATCCGTATTTGCG (site TCGGAATCTCG)”, the “recombinant UMI read abundance (log10)” value is reported as 1.85.
In the case of “TGGGAATCATGGACCGGTTTTCCCGGTAATCCGTATTTGCG (site TGGGAATCTCG)”, the “recombinant UMI read abundance (log10)” value is reported as 2.5.
With “TGGGAATCATGGACCGGTTTTCCCGGTAATCCGTATTTGCG (site TTGGAATCTCG)” the “recombinant UMI read abundance (log10)” value was 0.459.
In the case of “TGGGAGACATGGACCGGTTTTCCCGGTAATCCGTATTTGCA (site AGGAAGACTTG)”, the “recombinant UMI read abundance (log10)” value is reported as 0.261.
In the case of “TGGGAGACATGGACCGGTTTTCCCGGTAATCCGTATTTGCA (site TGGGAGACTTG)”, the “recombinant UMI read abundance (log10)” value is reported as 1.7.
In the case of “TGGGAGGCATGGACCGGTTTTCCCGGTAATCCGTATTTGAC (site TGGGAGGCTGT)”, the “recombinant UMI read abundance (log10)” value is reported as 1.46.
For “TGGGTGCCATGGACCGGTTTTCCCGGTAATCCGTATTTGAC (site TGGGTGCCTGT)”, the “recombinant UMI read abundance (log10)” value was 0.
For “TGGTAGCCATGGACCGGTTTTCCCGGTAATCCGTATTTGTT (site TGGTAGCCTAA)”, the “recombinant UMI read abundance (log10)” value was 0.256.
With “TGGTCATCATGGACCGGTTTTCCCGGTAATCCGTATTTGAG (site TGGTCATCTCT)” the “recombinant UMI read abundance (log10)” value was 0.0288.
In the case of “TGGTGCCCATGGACCGGTTTTCCCGGTAATCCGTATTTGGT (site TGGTGCCCTAC)”, the “recombinant UMI read abundance (log10)” value is reported as 0.00779.
